For orientation: IC50 means the midpoint of a concentration-inhibition curve. The Kd is a measure of binding affinity in units of concentration.

For test [1], the system named is Axl phosphorylation in transiently transfected HEK293T cells. Description: Cellular Axl phosphorylation assay. It counts as cell-based. As to conditions: Homo sapiens, HEK-293T; HEK293T cells transfected with Axl, 1 hour compound treatment, Phospho-Axl vs Total-Axl. An outline of the steps: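 Axl-RTK was overexpressed by transfection in HEK293T cells to drive trans-autophosphorylation; cells were exposed to test compound for 1 hour. Phospho-Axl and total Axl were captured in lysates and detected by MSD electrochemiluminescence. IC50 was set between the DMSO group and the empty-vector-transfected minimum.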

The target in test [2] is T1, TYRO3 (Homo sapiens, UniProt Q06418).
T1 construct: purchased Life Technologies
T1 sequence (Q06418 41-890): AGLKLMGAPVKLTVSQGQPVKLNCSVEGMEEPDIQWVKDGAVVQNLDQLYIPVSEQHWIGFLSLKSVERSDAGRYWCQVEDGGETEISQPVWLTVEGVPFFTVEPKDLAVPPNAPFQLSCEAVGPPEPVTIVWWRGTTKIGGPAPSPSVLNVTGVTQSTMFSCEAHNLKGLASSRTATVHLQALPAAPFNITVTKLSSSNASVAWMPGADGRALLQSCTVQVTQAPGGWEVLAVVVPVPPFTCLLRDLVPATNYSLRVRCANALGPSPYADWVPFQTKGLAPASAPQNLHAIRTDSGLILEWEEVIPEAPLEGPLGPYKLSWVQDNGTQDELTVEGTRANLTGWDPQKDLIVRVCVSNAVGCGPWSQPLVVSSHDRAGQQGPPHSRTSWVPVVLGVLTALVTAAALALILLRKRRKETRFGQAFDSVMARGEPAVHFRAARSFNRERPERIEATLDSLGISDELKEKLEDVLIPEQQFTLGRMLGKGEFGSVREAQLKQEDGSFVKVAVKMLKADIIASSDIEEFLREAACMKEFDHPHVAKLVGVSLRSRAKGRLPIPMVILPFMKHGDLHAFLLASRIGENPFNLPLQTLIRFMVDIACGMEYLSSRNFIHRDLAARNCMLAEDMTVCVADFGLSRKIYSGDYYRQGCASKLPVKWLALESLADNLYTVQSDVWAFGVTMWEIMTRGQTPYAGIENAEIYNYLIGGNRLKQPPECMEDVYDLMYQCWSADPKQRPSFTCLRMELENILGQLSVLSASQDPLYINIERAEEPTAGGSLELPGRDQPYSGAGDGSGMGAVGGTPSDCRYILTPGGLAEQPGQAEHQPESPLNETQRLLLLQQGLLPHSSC
Description: LanthaScreen Eu kinase binding assay, TYRO3. As to conditions: Tracer 236. (In general: In TR-FRET formats the signal depends on donor and acceptor labels being close together.)

Test [3] concerns the target T2, Met (Homo sapiens, UniProt P08581).
T2 construct: purchased Life Technologies
As to the kind of experiment: LanthaScreen Eu kinase binding assay, Met. The conditions noted are these: Tracer 236, read-out: cMet kinase binding activity (Kd).

T2 sequence (P08581 25-1390): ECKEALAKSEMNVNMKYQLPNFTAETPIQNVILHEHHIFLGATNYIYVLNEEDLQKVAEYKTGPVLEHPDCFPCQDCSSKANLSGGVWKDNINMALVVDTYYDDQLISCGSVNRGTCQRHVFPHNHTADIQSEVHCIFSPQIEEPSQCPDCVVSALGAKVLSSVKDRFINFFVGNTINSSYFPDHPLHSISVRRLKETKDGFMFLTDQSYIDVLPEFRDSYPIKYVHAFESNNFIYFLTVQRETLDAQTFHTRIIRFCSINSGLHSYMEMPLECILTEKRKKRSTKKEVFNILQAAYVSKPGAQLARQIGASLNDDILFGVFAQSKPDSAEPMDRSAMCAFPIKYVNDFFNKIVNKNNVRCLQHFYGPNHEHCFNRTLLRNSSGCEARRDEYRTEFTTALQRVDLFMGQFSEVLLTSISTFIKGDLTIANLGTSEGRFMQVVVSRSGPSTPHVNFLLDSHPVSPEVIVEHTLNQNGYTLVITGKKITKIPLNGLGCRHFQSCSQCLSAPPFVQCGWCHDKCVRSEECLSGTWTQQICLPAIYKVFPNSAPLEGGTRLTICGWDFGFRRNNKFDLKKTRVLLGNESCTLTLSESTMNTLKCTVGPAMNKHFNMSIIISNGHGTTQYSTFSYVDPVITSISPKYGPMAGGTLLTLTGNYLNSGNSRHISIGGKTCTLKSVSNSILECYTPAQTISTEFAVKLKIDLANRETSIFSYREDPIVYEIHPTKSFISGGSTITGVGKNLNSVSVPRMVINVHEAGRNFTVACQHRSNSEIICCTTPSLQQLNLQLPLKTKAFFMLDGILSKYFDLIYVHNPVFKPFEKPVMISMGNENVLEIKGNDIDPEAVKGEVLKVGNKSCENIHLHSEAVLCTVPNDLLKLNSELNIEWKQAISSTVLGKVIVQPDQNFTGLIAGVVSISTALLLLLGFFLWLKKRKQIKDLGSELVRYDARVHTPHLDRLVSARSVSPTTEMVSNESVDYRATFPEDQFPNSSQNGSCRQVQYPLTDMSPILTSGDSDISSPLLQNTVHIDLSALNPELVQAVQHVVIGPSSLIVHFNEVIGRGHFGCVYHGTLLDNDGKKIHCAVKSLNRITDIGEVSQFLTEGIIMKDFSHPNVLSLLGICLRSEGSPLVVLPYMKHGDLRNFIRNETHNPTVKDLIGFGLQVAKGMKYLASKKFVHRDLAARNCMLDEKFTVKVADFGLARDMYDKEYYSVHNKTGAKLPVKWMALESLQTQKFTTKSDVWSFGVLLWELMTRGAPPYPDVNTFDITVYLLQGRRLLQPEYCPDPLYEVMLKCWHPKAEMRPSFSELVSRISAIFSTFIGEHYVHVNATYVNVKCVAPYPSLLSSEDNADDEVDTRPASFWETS

Turning to `CCOc1cn(-c2ccc(OC(F)(F)F)cc2Cl)nc1C(=O)Nc1ccc(Oc2ccnc3cc(OC)c(OC(F)(F)F)cc23)cn1` [Compound 201], in test [1], the 50% inhibitory concentration (IC50) fell in the range of 100 to 1000 nM. In addition, the dissociation constant (Kd) was ≥ 1000 nM in test [2] and 100 to 1000 nM in test [3].
As to `CCOc1cn(-c2ccc(C(F)(F)F)cc2C)nc1C(=O)Nc1ccc(Oc2ccnc3cc(OC)c(OC)cc23)cn1` [Compound 99], the half-maximal inhibitory concentration (IC50) in test [1] is < 100 nM. Also, the dissociation constant (Kd) in test [2] is 100 to 1000 nM; in test [3], ≥ 1000 nM.
The matching figures for `CCOc1cn(-c2cnccc2C(F)(F)F)nc1C(=O)Nc1ccc(Oc2ccnc3cc(OC)c(OC)cc23)cc1F` [Compound 196]: < 100 nM, < 100 nM and < 100 nM.
On the same counts, the results for `CCOc1cn(-c2cnccc2CCO)nc1C(=O)Nc1ccc(Oc2ccnc3cc(OC)c(OC)cc23)cn1` [Compound 181] are < 100 nM, < 100 nM and < 100 nM.
The matching figures for `CCOc1cnn(-c2ccc(Cl)c(CN(C)C)c2)c1C(=O)Nc1ccc(Oc2ccnc3cc(OC)c(OC)cc23)cn1` [Compound 130]: < 100 nM, 100 to 1000 nM and < 100 nM.
Take `CCOc1cn(-c2ccc(OC(F)(F)F)cc2F)nc1C(=O)Nc1ccc(Oc2ccnc3cc(OC)c(OC)cc23)cn1` [Compound 120]: in test [1], the half-maximal inhibitory concentration (IC50) was < 100 nM. Moreover, the results for the Kd in test [2] and in test [3] were ≥ 1000 nM and 100 to 1000 nM, respectively.
On the same counts, the results for `CCOc1cn(-c2cnccc2C(C)(C)O)nc1C(=O)Nc1ccc(Oc2ccnc3cc(OC)c(OC)cc23)cc1F` [Compound 197] are < 100 nM, < 100 nM and < 100 nM.
For the compound `CCOc1cn(-c2cccnc2)nc1C(=O)Nc1ccc(Oc2ccnc3cc(OC(C)CC)c(OC)cc23)cn1` (stereo not drawn) [Compound 206], the IC50 in test [1] is < 100 nM. In addition, the Kd in test [2] and in test [3] was ≥ 1000 nM in each case.
In the case of `CCOc1cn(-c2ccc(C(F)(F)F)cc2C(F)(F)F)nc1C(=O)Nc1ccc(Oc2ccnc3cc(OC)c(OC)cc23)cn1` [Compound 105], the IC50 in test [1] was < 100 nM. Besides, the figures for the Kd in test [2] and in test [3] were 100 to 1000 nM and < 100 nM, respectively.
On to `CCOc1cnn(-c2ccc(C(F)(F)F)cc2C(F)(F)F)c1C(=O)Nc1ccc(Oc2ccnc3cc(OC)c(OC)cc23)cn1` [Compound 110], for which, in test [1], the 50% inhibitory concentration (IC50) is < 100 nM. In addition, the Kd in test [2] was 100 to 1000 nM; in test [3], < 100 nM.
Take `CCOc1cn(-c2cnccc2CO)nc1C(=O)Nc1ccc(Oc2ccnc3cc(OC)c(OC)cc23)cc1F` [Compound 209]: the concentration for half-maximal inhibition (IC50) in test [1] is < 100 nM. Moreover, the Kd in test [2] and in test [3] was < 100 nM each time.
As to `CCOc1cn(-c2nccnc2Cl)nc1C(=O)Nc1ccc(Oc2ccnc3cc(OC)c(OC)cc23)cn1` [Compound 177], in test [1], the half-inhibitory concentration (IC50) was < 100 nM. Moreover, the dissociation constant (Kd) in test [2] and in test [3] was < 100 nM each time.
Regarding `CCOc1cn(-c2cnccc2CO)nc1C(=O)Nc1ccc(Oc2ccnc3cc(OC)c(OC)cc23)c(F)c1` [Compound 207], in test [1], the half-inhibitory concentration (IC50) was < 100 nM. Moreover, the Kd in test [2] and in test [3] was < 100 nM throughout.
On to `CCOc1cn(C2CCCN(C)C2)nc1C(=O)Nc1ccc(Oc2ccnc3cc(OC)c(OC)cc23)cc1F` (stereo not drawn) [Compound 211], for which the IC50 in test [1] is < 100 nM. Moreover, the Kd in test [2] and in test [3] was 100 to 1000 nM in each case.
`COc1cc2nccc(Oc3ccc(NC(=O)c4nn(-c5cccnc5)cc4OCC(F)(F)F)nc3)c2cc1OC` [Compound 185]: the half-maximal inhibitory concentration (IC50) in test [1] was < 100 nM. The dissociation constant (Kd) in test [2] and in test [3] was < 100 nM throughout.
For the compound `CCOc1cn(-c2ccnc(O)c2)nc1C(=O)Nc1ccc(Oc2ccnc3cc(OC)c(OC)cc23)cn1` [Compound 7], the half-maximal inhibitory concentration (IC50) in test [1] is ≥ 1000 nM. The figures for the Kd in test [2] and in test [3] were ≥ 1000 nM and < 100 nM, respectively.
Take `CCOc1cn(-c2ccc(F)cc2F)nc1C(=O)Nc1ccc(Oc2ccnc3cc(OC)c(OC)cc23)cn1` [Compound 107]: in test [1], the IC50 is < 100 nM. In addition, the Kd in test [2] and in test [3] was < 100 nM throughout.
With `CCOc1cn(-c2ncc(Cl)cc2C#N)nc1C(=O)Nc1ccc(Oc2ccnc3cc(OC)c(OC)cc23)cn1` [Compound 133], in test [1], the IC50 is < 100 nM. The Kd in test [2] and in test [3] was < 100 nM in each case.

Source of the values: patent US10934274B2, “Quinoline derivatives as TAM RTK inhibitors” (Qurient Co., Ltd., priority 2015, dated 2021).
